Values quoted from earlier work in patent US20140234410A1, “COMBINATION PRODUCTS” (SIGMOID PHARMA LTD., priority 2004, published 2014).

Legend:
[1] = in vivo
thrombocythemia = conditions: co-administrated with a small dose of aspirin; people with thrombocythemia
tumour growth = conditions: simultaneous administration with R-verapamil
[2] = adults
[3] = in vivo; remark: listed apart in the source

COCCOC(=O)C1=C(C)NC(C)=C(C(=O)OC(C)C)C1c1cccc([N+](=O)[O-])c1 (stereo not shown) [Nimodipine]
solubility in water: practically insoluble

COc1ccc2c(c1)[C@]13CCCC[C@@H]1[C@H](C2)N(C)CC3 [Dextromethorphan]
adverse effects, share of people [1]: less than 1%

NC(=O)NO [Hydroxyurea]
solubility in water: freely soluble
preventing serious bleeding and other complications versus anagrelide hydrochloride (thrombocythemia): more effective

CC/C(=C(\c1ccccc1)c1ccc(OCCN(C)C)cc1)c1ccccc1 [tamoxifen, Tamoxifen]
tumour growth (tumour growth): significantly decreases

Cn1c(=O)c2[nH]cnc2n(C)c1=O [Theophylline]
biological half life [2]: < 6 hours
concentrations with anti-inflammatory and immunostimulatory effect [3]: 5 to 10 mg/L

CCCC(CCC)C(=O)O [valproic acid]
plasma concentrations of nimodipine (cytochrome P450; two drugs administered in combination): increased

CN(CCOc1ccc(CC2SC(=O)NC2=O)cc1)c1ccccn1 (stereo not shown) [rosiglitazone, Rosiglitazone]
solubility as a function of pH (physiological range): decreases with increasing pH

CN/C(=N/CCSCc1nc[nH]c1C)NC#N [cimetidine]
bioavailability of nimodipine (cytochrome P450; effect of the co-administered drug): approximate doubling
